Test results reported in the supplement of paper PMC11208160.

assay: recombinant UMI read abundance after kanamycin selection (control-corrected) (log10(CPM+1)); higher = more efficient recombination; extreme values may be limits of the assay; sequences stand for … in AGTGCAGAGAAAATCGGCCAGTTTTCTCTGCCTGCAGTCCGCATGCCGTGGGACCCCTTGGGTTCTAACCTGTTGCCTAGATTTATGCAGCGGACTGCCTTTCTCCCAAAGTGATAAACCGG…AGGTTGGTTTCACT; site = the 11-nt donor
How it was run: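 Pooled Escherichia coli screen of donor and donor-binding-loop pairs for the IS621 bridge recombinase. Each pair sits with a 12-nt UMI on a plasmid carrying a promoterless kanamycin gene. The library was co-electroporated with a target plasmid encoding a fixed target and T7-inducible recombinase, then plated with IPTG (0.07 mM) plus kanamycin, or unselected, each in two replicates. Recombinant UMIs were PCR-amplified across the donor–target junction and sequenced. Counts became CPM, averaged over replicates, scaled by control-derived factors and reported as log10(CPM+1).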
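Note: IS621 bridge recombinase in Escherichia coli cells against a fixed T5 target plasmid.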

Sequence | recombinant UMI read abundance (log10)
GTAAGAACATGGACCGGTTTTCCCGGTAATCCGTATTTGGC (site GTCAGAACTGC) | 0
GTAAGAACATGGACCGGTTTTCCCGGTAATCCGTATTTGGC (site GTGAGAACTGC) | 1.09
GTAAGAACATGGACCGGTTTTCCCGGTAATCCGTATTTGGC (site GTTAGAACTGC) | 1.13
GTAAGCCCATGGACCGGTTTTCCCGGTAATCCGTATTTGTC (site GTAAGCCCTGA) | 1.98
GTAAGCGCATGGACCGGTTTTCCCGGTAATCCGTATTTGGC (site GTAAGCGCTGC) | 3.26
GTAAGTACATGGACCGGTTTTCCCGGTAATCCGTATTTGGA (site GTAAGTACTTC) | 1.17
GTAATAACATGGACCGGTTTTCCCGGTAATCCGTATTTGGC (site GTAATAACTGC) | 2.43
GTAATACCATGGACCGGTTTTCCCGGTAATCCGTATTTGCA (site GTAATACCTTG) | 0
GTAATCGCATGGACCGGTTTTCCCGGTAATCCGTATTTGCG (site GTAATCGCTCG) | 1.95
GTAATCGCATGGACCGGTTTTCCCGGTAATCCGTATTTGCG (site GTACTCGCTCG) | 0.0396
GTAATCGCATGGACCGGTTTTCCCGGTAATCCGTATTTGCG (site GTAGTCGCTCG) | 0.00978
GTAATCGCATGGACCGGTTTTCCCGGTAATCCGTATTTGCG (site GTATTCGCTCG) | 0.00488
GTAATGGCATGGACCGGTTTTCCCGGTAATCCGTATTTGAA (site GTAATGGCTTT) | 2.26
GTAATTTCATGGACCGGTTTTCCCGGTAATCCGTATTTGCA (site GTAATTTCTTG) | 1.4
GTACACGCATGGACCGGTTTTCCCGGTAATCCGTATTTGCT (site GTACACGCTAG) | 2.16
GTACATTCATGGACCGGTTTTCCCGGTAATCCGTATTTGAT (site GTACATTCTAT) | 2.04
GTACGCCCATGGACCGGTTTTCCCGGTAATCCGTATTTGAT (site GTACGCCCTAT) | 0.747
GTACGCCCATGGACCGGTTTTCCCGGTAATCCGTATTTGCA (site GTACGCCCTTG) | 1.16
GTACGCTCATGGACCGGTTTTCCCGGTAATCCGTATTTGAA (site GTACGCTCTTT) | 2.11

Sequence | recombinant UMI read abundance (log10)
GTACTAACATGGACCGGTTTTCCCGGTAATCCGTATTTGGC (site GTACTAACTGC) | 2.4
GTACTACCATGGACCGGTTTTCCCGGTAATCCGTATTTGTG (site GTACTACCTCA) | 0.00602
GTACTCGCATGGACCGGTTTTCCCGGTAATCCGTATTTGTC (site GTACTCGCTGA) | 2.42
GTAGATACATGGACCGGTTTTCCCGGTAATCCGTATTTGCC (site GTAGATACTGG) | 0
GTAGCGACATGGACCGGTTTTCCCGGTAATCCGTATTTGAG (site GTAGCGACTCT) | 1.28
GTAGGAACATGGACCGGTTTTCCCGGTAATCCGTATTTGAC (site GTAGGAACTGT) | 2.59
GTAGGAACATGGACCGGTTTTCCCGGTAATCCGTATTTGAC (site GTAGGCACTGT) | 1.3
GTAGGAACATGGACCGGTTTTCCCGGTAATCCGTATTTGAC (site GTAGGGACTGT) | 2.24
GTAGGAACATGGACCGGTTTTCCCGGTAATCCGTATTTGAC (site GTAGGTACTGT) | 1.56
GTAGGCACATGGACCGGTTTTCCCGGTAATCCGTATTTGAC (site GTAGGAACTGT) | 1.1
GTAGGCACATGGACCGGTTTTCCCGGTAATCCGTATTTGAC (site GTAGGCACTGT) | 2.05
GTAGGCACATGGACCGGTTTTCCCGGTAATCCGTATTTGAC (site GTAGGGACTGT) | 0
GTAGGCACATGGACCGGTTTTCCCGGTAATCCGTATTTGAC (site GTAGGTACTGT) | 0.00895
GTAGGTACATGGACCGGTTTTCCCGGTAATCCGTATTTGAC (site ATAGGTACTGT) | 2.02
GTAGGTACATGGACCGGTTTTCCCGGTAATCCGTATTTGAC (site CTAGGTACTGT) | 1.95
GTAGGTACATGGACCGGTTTTCCCGGTAATCCGTATTTGAC (site GAAGGTACTGT) | 0
GTAGGTACATGGACCGGTTTTCCCGGTAATCCGTATTTGAC (site GCAGGTACTGT) | 0.704
GTAGGTACATGGACCGGTTTTCCCGGTAATCCGTATTTGAC (site GGAGGTACTGT) | 0
